Data: patent US20160151406A1, “COMBINATION CANCER THERAPY WITH C-MET INHIBITORS AND SYNTHETIC OLIGONUCLEOTIDES” (Mirna Therapeutics, Inc., priority 2014, published 2016)
Where two headings read alike, the source gives them in different places.

Columns and labels:
Assay type in all cases: cell-based
C3A HCC cells = test: Single-agent cell proliferation (AlamarBlue), C3A; conditions: Homo sapiens, 72 h, drug alone, proliferation 3 days post drug treatment
Procedure: (§1) Cell culture: HCC cells were maintained in EMEM medium with 10% fetal bovine serum, except Huh7 were maintained in DMEM. All cells were maintained at 37° C. in a humidified of 95% air and 5% CO2.
(§2) miR-Rx34 and tivantinib and EMD1214063 treatment: To determine the IC50 value of each drug alone, 2,000 cells per well were seeded in a 96-well plate format and treated with either tivantinib or miR-Rx34 as follows. (i) miR-Rx34 was reverse-transfected in triplicates in a serial dilution (0.03-30 nM) using RNAiMax lipofectamine. As controls, cells were also transfected with RNAiMax alone (mock). Cells were incubated with AlamarBlue (Invitrogen) 6 days post transfection to determine cellular proliferation. Proliferation data were normalized to mock-transfected cells. (ii) Tivantinib or EMD1214063, prepared as a 10 mM stock solution in dimethyl sulfoxide (DMSO), was added to cells 3 days after seeding at a final concentration ranging from 0.1 to 100 μM for tivantinib and 0.01 and 10 μM for EMD1214063. Solvent alone (1% final DMSO) was added to cells in separate wells as a control. Three days thereafter, cellular proliferation was measured by AlamarBlue and normalized to the solvent control.
(§3) Statistical analysis: Statistical analysis was done using the Excel (Microsoft) and Graphpad software. Averages and standard deviations were calculated from triplicate experiments. […]

SK-Hep1 HCC cells = test: Single-agent cell proliferation (AlamarBlue), SK-Hep1; conditions: Homo sapiens, 72 h, drug alone, proliferation 3 days post drug treatment, read-out: EMD1214063 IC50
Procedure: as §1, §2, §3

Hep3b HCC cells = test: Single-agent cell proliferation (AlamarBlue), Hep3b; conditions: Homo sapiens, 72 h, drug alone, proliferation 3 days post drug treatment, read-out: Tivantinib IC50
Procedure: as §1, §2, §3

HepG2 HCC cells = test: Single-agent cell proliferation (AlamarBlue), HepG2; conditions: Homo sapiens, 72 h, drug alone, proliferation 3 days post drug treatment, read-out: Tivantinib IC50
Procedure: as §1, §2, §3

Huh7 HCC cells = test: Single-agent cell proliferation (AlamarBlue), Huh7; conditions: Homo sapiens, Huh-7, 72 h, drug alone, proliferation 3 days post drug treatment, read-out: Tivantinib IC50
Procedure: as §1, §2, §3

IC50 (C3A HCC cells; read-out: EMD1214063 IC50)	IC50 (SK-Hep1 HCC cells)	IC50 (Hep3b HCC cells)	IC50 (HepG2 HCC cells)	IC50 (C3A HCC cells; read-out: Tivantinib IC50)	IC50 (Huh7 HCC cells)	Compound
7 µM	6.7 µM	–	–	–	–	CN1CCC(COc2cnc(-c3cccc(Cn4nc(-c5cccc(C#N)c5)ccc4=O)c3)nc2)CC1 [EMD1214063, 3-(1-(3-(5-((1-methylpiperidin-4-yl)methoxy)pyrimidin-2-yl)benzyl)-1,6-dihydro-6-oxopyridazin-3-yl)benzonitrile]
–	–	4.63 to 18.6 µM	8.99 to 25 µM	2.3 to 7.42 µM	1.5 to 3.32 µM	O=C1NC(=O)[C@@H](c2cn3c4c(cccc24)CCC3)[C@@H]1c1c[nH]c2ccccc12 [Tivantinib, (3R,4R)-3-(5,6-Dihydro-4H-pyrrolo[3,2,1-ij]quinolin-1-yl)-4-(1H-indol-3-yl)-2,5-pyrrolidinedione]
